We go through 13 compounds from PubChem BioAssay (NCI).

Test systems include ACHN renal; A498 renal; UACC-257 melanoma; HT29 colon; HS 578T breast; SF-295 CNS; SK-MEL-5 melanoma; NCI-H226 lung; CAKI-1 renal; OVCAR-5 ovarian.
What all share (experiment): NCI-60 cell line screen, 48 h

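Assay format: 96-well plates, 48-hour exposure. Abbreviation: GI50, concentration required for 50% inhibition of growth. TGI: concentration producing complete growth inhibition.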 Where a SMILES comes first, the peptide text is derived from it. [ ]: non-standard residue; d: D form. The star is where a group is joined. hSer = N[CH](CCO)C(=O)O; Boc = CC(C)(C)OC(=O)*

In the case of `COC(=O)[C@]1(C)CCCn2c(=O)n(-c3ccccc3)c(=O)n21`, the TGI in the assay with ACHN renal, in the assay with A498 renal, in the assay with UACC-257 melanoma, in the assay with HT29 colon, in the assay with HS 578T breast and with SF-295 CNS was > 100 µM in each case. The TGI in the assay on SK-MEL-5 melanoma, in the assay on NCI-H226 lung, in the assay on CAKI-1 renal and with OVCAR-5 ovarian was > 100 µM throughout.

On to `COc1ccc(C2SCC(=O)N2N=C2NC(=O)CC(=O)N2)cc1` (stereo not drawn), for which the TGI with ACHN renal, with A498 renal, in the assay with UACC-257 melanoma, in the assay on HT29 colon, in the assay on HS 578T breast and in the assay on SF-295 CNS was > 100 µM throughout. The TGI in the assay on SK-MEL-5 melanoma, in the assay with NCI-H226 lung, in the assay with CAKI-1 renal and in the assay on OVCAR-5 ovarian was > 100 µM in each case.

Consider `Cc1ncc([N+](=O)[O-])n1CCN(C)CCCCn1ccnc1[N+](=O)[O-]`, for which the TGI in the assay with ACHN renal, with A498 renal, with UACC-257 melanoma, in the assay with HT29 colon, in the assay on HS 578T breast and in the assay on SF-295 CNS was > 100 µM each time. The TGI in the assay on SK-MEL-5 melanoma, in the assay on NCI-H226 lung, in the assay on CAKI-1 renal and in the assay on OVCAR-5 ovarian was > 100 µM throughout.

Regarding `O=C(NCc1cn(Cc2cccc(Oc3ccccc3)c2)nn1)c1cccnc1Nc1ccccc1`, the GI50 was 5.67 µM in the assay on ACHN renal; 1.88 µM in the assay with A498 renal; 14.2 µM in the assay on UACC-257 melanoma; 3.65 µM with HT29 colon; 3.68 µM with HS 578T breast; 3.69 µM in the assay with SF-295 CNS. In addition, the GI50 is 3.89 µM in the assay on SK-MEL-5 melanoma, 3.24 µM in the assay with NCI-H226 lung, 5.45 µM in the assay on CAKI-1 renal and 5.73 µM in the assay with OVCAR-5 ovarian. The TGI in the assay on ACHN renal is > 100 µM; in the assay on A498 renal it was 8.19 µM; in the assay on UACC-257 melanoma, 86.4 µM; with HT29 colon, 11.6 µM; in the assay on HS 578T breast it was > 100 µM; with SF-295 CNS it was > 100 µM. Besides, the TGI in the assay on SK-MEL-5 melanoma was 28.3 µM; with NCI-H226 lung, > 100 µM; with CAKI-1 renal, > 100 µM; in the assay on OVCAR-5 ovarian it was > 100 µM.

As for `O=C(C=P(c1ccccc1)(c1ccccc1)c1ccccc1)C12CC3CC(CC(C3)C1)C2`, the TGI with ACHN renal is 29.7 µM; with A498 renal, 39.9 µM; in the assay with UACC-257 melanoma, 32.8 µM; with HT29 colon, 23.2 µM; with HS 578T breast it was 37.6 µM; in the assay with SK-MEL-5 melanoma, 28.8 µM. Besides, the TGI was found to be 33.6 µM in the assay on CAKI-1 renal and 32.7 µM in the assay with OVCAR-5 ovarian.

As to `CN(C)CC1CCC/C(=C\c2ccc(N(C)C)cc2)C1=O` (stereo not drawn), the TGI was 34 µM with ACHN renal; 30.9 µM with A498 renal; 26.3 µM in the assay with UACC-257 melanoma; 3.6 µM in the assay with HT29 colon; 26 µM with HS 578T breast; 32.2 µM in the assay with SF-295 CNS. The TGI in the assay on SK-MEL-5 melanoma is 31.4 µM; in the assay on NCI-H226 lung, 64 µM; with CAKI-1 renal, 3.3 µM; in the assay with OVCAR-5 ovarian, 26.9 µM.

Turning to `COc1ccc(C[C@@H]2CN(C(=O)c3ccccc3)[C@H](Cc3ccc(O)cc3)CN2C(=O)c2ccccc2)cc1Br`, the TGI with ACHN renal, with A498 renal, in the assay with UACC-257 melanoma, in the assay with HT29 colon, with HS 578T breast and in the assay with SF-295 CNS was > 100 µM in each case. Moreover, the TGI in the assay on NCI-H226 lung, in the assay with CAKI-1 renal and in the assay on OVCAR-5 ovarian was > 100 µM throughout.

As to `NC1=CN(CCCO)C2=N/C(=C\c3ccco3)C(=O)N12`, the TGI with ACHN renal, in the assay with A498 renal, in the assay with UACC-257 melanoma, in the assay with HT29 colon, with HS 578T breast and in the assay with SF-295 CNS was > 100 µM in each case. Further, the TGI with SK-MEL-5 melanoma, in the assay with NCI-H226 lung, in the assay on CAKI-1 renal and in the assay with OVCAR-5 ovarian was > 100 µM throughout.

With `COCCC(NC(=O)C(CC(C)C)NC(=O)OC(C)(C)C)C(N)=O` (stereo not drawn) (Boc-Leu-[hSer](Me)-NH2; configuration not given here), the TGI in the assay on ACHN renal, in the assay with A498 renal, in the assay with UACC-257 melanoma, with HT29 colon, in the assay with HS 578T breast and with SF-295 CNS was > 100 µM each time. Further, the TGI in the assay with SK-MEL-5 melanoma, in the assay with NCI-H226 lung and in the assay with CAKI-1 renal was > 100 µM each time.

As for `c1ccc(COc2ccc(C[P+](c3ccccc3)(c3ccccc3)c3ccccc3)cc2)cc1`, the TGI with ACHN renal was 6.39 µM; in the assay with A498 renal, 5.51 µM; in the assay with UACC-257 melanoma it was 11.6 µM; in the assay on HT29 colon, 2.02 µM; in the assay with HS 578T breast, 3.19 µM; with SF-295 CNS, 2.97 µM. Also, the TGI with SK-MEL-5 melanoma stood at 0.284 µM; in the assay on NCI-H226 lung it was 22.4 µM; in the assay on CAKI-1 renal, 20.2 µM; with OVCAR-5 ovarian, 2.2 µM.

On to `N#Cc1[nH]c(=O)n(-c2ccc([N+](=O)[O-])cc2)c1N`, for which the TGI with ACHN renal, with A498 renal, with UACC-257 melanoma, in the assay on HT29 colon, with HS 578T breast and in the assay on SF-295 CNS was > 10 µM each time. Besides, the TGI in the assay with SK-MEL-5 melanoma, with NCI-H226 lung and with OVCAR-5 ovarian was > 10 µM throughout.

On to `CCOC(=O)NNC(=O)NCCNC(=O)NNC(=O)OCC`, for which the TGI in the assay on A498 renal, in the assay with UACC-257 melanoma, in the assay on HT29 colon, in the assay with HS 578T breast, with SK-MEL-5 melanoma and in the assay on NCI-H226 lung was > 100 µM throughout. The TGI in the assay on CAKI-1 renal and in the assay with OVCAR-5 ovarian was > 100 µM each time.

For the compound `CC12CC3c4ccccc4CN1C3(c1ccccc1)OC2=O` (stereo not drawn), the TGI with ACHN renal, in the assay on A498 renal, in the assay on UACC-257 melanoma, in the assay on HT29 colon, in the assay with HS 578T breast and with SF-295 CNS was > 100 µM in each case. The TGI in the assay with SK-MEL-5 melanoma, with NCI-H226 lung, in the assay with CAKI-1 renal and with OVCAR-5 ovarian was > 100 µM each time.
